In patent US9834551B2, “Substituted pyrrolo[2,3-b]pyrazines and substituted pyrazolo[3,4-b]pyridines as ITK and JAK kinase inhibitors” (Arrien Pharmaceuticals LLC, priority 2013, dated 2017):

Columns and labels:
ITK = ITK (Homo sapiens (Human), UniProt Q08881); assay: ITK kinase assay (radiometric filter assay); format: biochemical; conditions: 10 μM ATP; 10-dose IC50 mode, 3 fold serial dilution starting at 100 μM; read-out: ITK kinase inhibition
Experimental: (§1) All additions were done on ice, followed by the addition of ATP mix. Wells were uniformly mixed using an Eppendorff plate shaker and incubated at 30° C. for 20 min, and stopped by the addition of 5 μL of 3% phosphoric acid. Volume was increased to 100 μL by adding 0.8% phosphoric acid which was then transferred to PC filter mats (Millipore), pre-equilibrated with 70% ethanol and water. Plates were washed thrice with 100 μL 0.8% phosphoric acid and dried for an hour at 60° C. 100 μL scintillation fluid was added into each well and reading taken in Perkin Elmer TOPCOUNT beta counter.
(§2) The reactions were carried out at 10 μM ATP for ITK, JAK3 and other TEC and Janus family of kinase.

JAK3 = JAK3 (Homo sapiens (Human), UniProt P52333); assay: JAK3 kinase assay (radiometric filter assay); format: biochemical; conditions: 10 μM ATP; 10-dose IC50 mode, 3 fold serial dilution starting at 100 μM; read-out: JAK3 kinase inhibition
Sequence of JAK3 (P52333 whole entry): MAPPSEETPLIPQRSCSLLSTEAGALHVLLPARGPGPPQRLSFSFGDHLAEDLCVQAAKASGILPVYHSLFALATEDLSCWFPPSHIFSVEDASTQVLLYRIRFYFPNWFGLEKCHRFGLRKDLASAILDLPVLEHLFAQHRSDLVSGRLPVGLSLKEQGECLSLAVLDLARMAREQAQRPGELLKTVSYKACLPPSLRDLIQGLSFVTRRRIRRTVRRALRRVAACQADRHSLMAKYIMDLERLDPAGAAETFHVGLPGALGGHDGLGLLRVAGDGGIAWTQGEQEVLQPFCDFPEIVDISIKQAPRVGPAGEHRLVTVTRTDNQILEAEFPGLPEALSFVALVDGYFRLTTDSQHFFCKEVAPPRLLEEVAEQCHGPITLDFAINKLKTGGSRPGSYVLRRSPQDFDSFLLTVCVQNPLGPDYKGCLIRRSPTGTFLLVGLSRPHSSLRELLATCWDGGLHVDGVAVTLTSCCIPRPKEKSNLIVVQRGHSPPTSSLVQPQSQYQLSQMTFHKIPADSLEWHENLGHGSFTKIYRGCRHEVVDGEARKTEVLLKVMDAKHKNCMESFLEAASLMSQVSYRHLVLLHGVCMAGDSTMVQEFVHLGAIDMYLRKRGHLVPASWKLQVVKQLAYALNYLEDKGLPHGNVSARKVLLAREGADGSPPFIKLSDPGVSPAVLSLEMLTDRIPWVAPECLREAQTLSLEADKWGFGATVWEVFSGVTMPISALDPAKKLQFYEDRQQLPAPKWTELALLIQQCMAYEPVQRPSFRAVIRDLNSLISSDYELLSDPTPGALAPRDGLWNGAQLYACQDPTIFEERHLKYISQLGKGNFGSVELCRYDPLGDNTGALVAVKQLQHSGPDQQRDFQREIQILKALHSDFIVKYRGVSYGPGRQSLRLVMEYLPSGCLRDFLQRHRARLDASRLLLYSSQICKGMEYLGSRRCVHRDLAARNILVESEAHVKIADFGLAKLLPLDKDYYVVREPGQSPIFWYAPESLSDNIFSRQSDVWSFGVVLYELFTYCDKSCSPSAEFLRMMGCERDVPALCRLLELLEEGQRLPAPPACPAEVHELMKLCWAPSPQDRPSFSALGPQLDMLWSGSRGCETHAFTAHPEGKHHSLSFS
Experimental: as §1, §2

[1] = tested on: Established Type II Collagen Arthritis; assay: Established type II collagen arthritis, PO BID, 11 day
Description: Effects of 1H-pyrrolo[2,3-b]pyridine series of compounds Administered PO, BID in 11 Day DBA/1OlaHsd Mouse Established Type II Collagen Arthritis

Sequence of ITK (Q08881 whole entry): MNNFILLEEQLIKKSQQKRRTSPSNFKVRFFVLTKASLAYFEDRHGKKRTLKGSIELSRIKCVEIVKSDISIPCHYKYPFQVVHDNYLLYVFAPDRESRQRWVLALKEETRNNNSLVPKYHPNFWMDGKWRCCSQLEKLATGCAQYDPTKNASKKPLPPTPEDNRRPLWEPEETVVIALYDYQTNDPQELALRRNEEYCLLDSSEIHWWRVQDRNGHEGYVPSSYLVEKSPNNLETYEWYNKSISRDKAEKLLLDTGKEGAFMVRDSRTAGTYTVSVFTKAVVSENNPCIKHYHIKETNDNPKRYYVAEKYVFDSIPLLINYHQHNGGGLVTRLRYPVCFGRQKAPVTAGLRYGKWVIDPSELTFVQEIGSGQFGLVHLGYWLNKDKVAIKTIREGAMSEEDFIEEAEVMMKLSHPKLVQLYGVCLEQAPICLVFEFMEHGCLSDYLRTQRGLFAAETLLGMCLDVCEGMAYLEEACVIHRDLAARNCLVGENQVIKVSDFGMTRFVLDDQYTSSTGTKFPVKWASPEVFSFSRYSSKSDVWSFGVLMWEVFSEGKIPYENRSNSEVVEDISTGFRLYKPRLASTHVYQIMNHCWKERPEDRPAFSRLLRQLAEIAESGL

CCC#CC(=O)Nc1cc(-c2cnc3[nH]cc(C)c3c2)ccc1F [Example 31, N-(2-fluoro-5-(3-methyl-1H-pyrrolo[2,3-b]pyridin-5-yl)phenyl)pent-2-ynamide]
IC50 (ITK): < 100 nM | IC50 (JAK3): < 100 nM

C=CC(=O)Nc1cccc(-c2cnc3[nH]cc(NS(=O)(=O)CCC)c3c2)c1 [Example 97, N-(3-(3-(propylsulfonamido)-1H-pyrrolo[2,3-b]pyridin-5-yl)phenyl)acrylamide]
IC50 (ITK): > 100 nM | IC50 (JAK3): > 100 nM

C[C@@H]1CCN(C(=O)CC#N)C[C@@H]1N(C)c1ncnc2[nH]ccc12 [CP-690550/Tofacitinib, Tofacitinib]
body weight ([1]; 60 mg/Kg): body weight change from day 1 | effectiveness, suppression of the inflammatory response ([1]; collagen-induced arthritis in mice, PO BID): 97%
